Laboratory results reported in US10329254B2, “Process for the preparation of 6-chloro-2,3,4,9-tetrahydro-1H-carbazole-1-carboxamide and intermediates thereof” (AOP ORPHAN PHARMACEUTICALS AG, priority 2011, dated 2019).

Assays:
[1] = Hygroscopicity (absorption-desorption spectrum); assay type: physicochemical; settings: FIG. 2 / FIG. 7
Text: FIG. 2: Absorption-Desorption spectrum of form A FIG. 7: Absorption-desorption spectrum of form B

[2] = Form A stability tests under simulated drug substance storage conditions; assay type: physicochemical
Protocol: Tables 3 and 4: Form A stability data: Compound (I) in the form of Form A was packed in double bagged polythene bags (fastened with cable/security ties) and placed inside 3.6 L Curtec kegs (HDPE) to simulate typical drug substance storage conditions. Stability tests were performed at 40° C./75% RH (table 3) and 25° C./60% RH (table 4).

Sirt1 = biological target: T1, Sirt1 (Homo sapiens, UniProt Q96EB6); settings: known from WO2005026112; cited from earlier work
T1 sequence (Q96EB6 1-747): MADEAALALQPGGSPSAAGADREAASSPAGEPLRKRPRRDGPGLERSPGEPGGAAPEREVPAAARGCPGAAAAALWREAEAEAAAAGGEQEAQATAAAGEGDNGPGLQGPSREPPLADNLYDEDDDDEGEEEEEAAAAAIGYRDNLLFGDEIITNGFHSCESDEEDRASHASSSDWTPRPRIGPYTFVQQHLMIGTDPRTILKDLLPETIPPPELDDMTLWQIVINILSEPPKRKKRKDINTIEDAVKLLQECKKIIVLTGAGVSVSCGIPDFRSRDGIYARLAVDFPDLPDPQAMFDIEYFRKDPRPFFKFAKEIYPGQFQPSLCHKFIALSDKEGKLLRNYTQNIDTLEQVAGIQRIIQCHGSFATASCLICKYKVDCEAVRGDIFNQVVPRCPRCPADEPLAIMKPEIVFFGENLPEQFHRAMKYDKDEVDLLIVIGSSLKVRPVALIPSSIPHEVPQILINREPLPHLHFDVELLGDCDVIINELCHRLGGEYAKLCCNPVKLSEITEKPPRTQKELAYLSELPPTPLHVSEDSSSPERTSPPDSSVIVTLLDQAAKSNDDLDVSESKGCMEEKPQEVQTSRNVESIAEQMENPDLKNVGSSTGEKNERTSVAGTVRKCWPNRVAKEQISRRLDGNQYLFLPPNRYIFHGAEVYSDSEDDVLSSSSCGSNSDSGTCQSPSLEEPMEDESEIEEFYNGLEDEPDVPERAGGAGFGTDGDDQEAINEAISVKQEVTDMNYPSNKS

SMILES: NC(=O)C1CCCc2c1[nH]c1ccc(Cl)cc21 (centres unmarked) [Form B, 6-Chloro-2,3,4,9-tetrahydro-1H-carbazole-1-carboxamide]
- Hygroscopicity [1]: non hygroscopic

SMILES: NC(=O)C1CCCc2c1[nH]c1ccc(Cl)cc21 (centres unmarked) [Form A, 6-Chloro-2,3,4,9-tetrahydro-1H-carbazole-1-carboxamide]
- DSC (conforms to polymorph A) ([2]; 25° C./60% RH, t = 0): Conforms
- Impurity content (by HPLC), no single impurity greater than 0.50% area ([2]; 25° C./60% RH, t = 0): Conforms
- XRPD (conforms to polymorph) ([2]; 25° C./60% RH, t = 0): Conforms
- Assay (by HPLC) ([2]; 25° C./60% RH, t = 0, on an anhydrous and solvent free basis, spec 98.0-102.0% w/w): 99.7% w/w
- Water content (by KF titration) ([2]; 25° C./60% RH, t = 0, spec: not more than 0.5% w/w): <0.1% w/w
- Impurity content (by HPLC), total impurities ([2]; 25° C./60% RH, t = 0, spec: not more than 2.0% area): 0.31% area
- Description ([2]; 25° C./60% RH, t = 0, spec: white to off-white solid): Off-white
- Assay (by HPLC) ([2]; 25° C./60% RH, t = 1 month): 99.0% w/w
- Description ([2]; 25° C./60% RH, t = 1 month): Off-white
- Impurity content (by HPLC), no single impurity greater than 0.50% area ([2]; 25° C./60% RH, t = 1 month): Conforms
- Impurity content (by HPLC), total impurities ([2]; 25° C./60% RH, t = 1 month): 0.54% area
- Water content (by KF titration) ([2]; 25° C./60% RH, t = 1 month): <0.1% w/w
- Assay (by HPLC) ([2]; 25° C./60% RH, t = 3 months): 99.1% w/w
- Description ([2]; 25° C./60% RH, t = 3 months): Off-white
- Impurity content (by HPLC), no single impurity greater than 0.50% area ([2]; 25° C./60% RH, t = 3 months): Conforms
- Impurity content (by HPLC), total impurities ([2]; 25° C./60% RH, t = 3 months): 0.22% area
- Water content (by KF titration) ([2]; 25° C./60% RH, t = 3 months): 0.2% w/w
- Assay (by HPLC) ([2]; 25° C./60% RH, t = 6 months): 98.7% w/w
- DSC (conforms to polymorph A) ([2]; 25° C./60% RH, t = 6 months): Conforms
- Description ([2]; 25° C./60% RH, t = 6 months): Off-white
- Impurity content (by HPLC), no single impurity greater than 0.50% area ([2]; 25° C./60% RH, t = 6 months): Conforms
- Impurity content (by HPLC), total impurities ([2]; 25° C./60% RH, t = 6 months): 0.32% area
- Water content (by KF titration) ([2]; 25° C./60% RH, t = 6 months): 0.1% w/w
- XRPD (conforms to polymorph) ([2]; 25° C./60% RH, t = 6 months): Conforms
- Assay (by HPLC) ([2]; 25° C./60% RH, t = 9 months): 99.4% w/w
- Description ([2]; 25° C./60% RH, t = 9 months): Off-white
- Impurity content (by HPLC), no single impurity greater than 0.50% area ([2]; 25° C./60% RH, t = 9 months): Conforms
- Impurity content (by HPLC), total impurities ([2]; 25° C./60% RH, t = 9 months): 0.29% area
- Water content (by KF titration) ([2]; 25° C./60% RH, t = 9 months): <0.1% w/w
- Assay (by HPLC) ([2]; 25° C./60% RH, t = 12 months): 99.0% w/w
- DSC (conforms to polymorph A) ([2]; 25° C./60% RH, t = 12 months): Conforms
- Description ([2]; 25° C./60% RH, t = 12 months): Off-white
- Impurity content (by HPLC), no single impurity greater than 0.50% area ([2]; 25° C./60% RH, t = 12 months): Conforms
- Impurity content (by HPLC), total impurities ([2]; 25° C./60% RH, t = 12 months): 0.27% area
- Water content (by KF titration) ([2]; 25° C./60% RH, t = 12 months): 0.1% w/w
- XRPD (conforms to polymorph) ([2]; 25° C./60% RH, t = 12 months): Conforms
- Assay (by HPLC) ([2]; 25° C./60% RH, t = 18 months): 98.6% w/w
- Description ([2]; 25° C./60% RH, t = 18 months): Off-white
- Impurity content (by HPLC), no single impurity greater than 0.50% area ([2]; 25° C./60% RH, t = 18 months): Conforms
- Impurity content (by HPLC), total impurities ([2]; 25° C./60% RH, t = 18 months): 0.26 % area
- Water content (by KF titration) ([2]; 25° C./60% RH, t = 18 months): 0.1% w/w
- Assay (by HPLC) ([2]; 25° C./60% RH, t = 24 months): 98.2% w/w
- DSC (conforms to polymorph A) ([2]; 25° C./60% RH, t = 24 months): Conforms
- Description ([2]; 25° C./60% RH, t = 24 months): Off-white
- Impurity content (by HPLC), no single impurity greater than 0.50% area ([2]; 25° C./60% RH, t = 24 months): Conforms
- Impurity content (by HPLC), total impurities ([2]; 25° C./60% RH, t = 24 months): 0.39% area
- Water content (by KF titration) ([2]; 25° C./60% RH, t = 24 months): <0.1% w/w
- XRPD (conforms to polymorph) ([2]; 25° C./60% RH, t = 24 months): Conforms
- DSC (conforms to polymorph A) ([2]; 40° C./75% RH, t = 0): Conforms
- Impurity content (by HPLC), no single impurity greater than 0.50% area ([2]; 40° C./75% RH, t = 0): Conforms
- XRPD (conforms to polymorph A) ([2]; 40° C./75% RH, t = 0): Conforms
- Assay (by HPLC) ([2]; 40° C./75% RH, t = 0, anhydrous and solvent free-basis, spec 98.0-102.0% w/w): 99.7% w/w
- Water content (by KF titration) ([2]; 40° C./75% RH, t = 0, spec: not more than 0.5% w/w): <0.1% w/w
- Impurity content (by HPLC), total impurities ([2]; 40° C./75% RH, t = 0, spec: not more than 2.0% area): 0.31% area
- Description ([2]; 40° C./75% RH, t = 0, spec: white to off-white solid): Off-white
- Description ([2]; 40° C./75% RH, t = 1 month): Off-white
- Impurity content (by HPLC), no single impurity greater than 0.50% area ([2]; 40° C./75% RH, t = 1 month): Conforms
- Impurity content (by HPLC), total impurities ([2]; 40° C./75% RH, t = 1 month): 0.25% area
- Water content (by KF titration) ([2]; 40° C./75% RH, t = 1 month): <0.1% w/w
- Assay (by HPLC) ([2]; 40° C./75% RH, t = 1 month, anhydrous and solvent free-basis): 98.9% w/w
- Description ([2]; 40° C./75% RH, t = 3 months): Off-white
- Impurity content (by HPLC), no single impurity greater than 0.50% area ([2]; 40° C./75% RH, t = 3 months): Conforms
- Impurity content (by HPLC), total impurities ([2]; 40° C./75% RH, t = 3 months): 0.25% area
- Water content (by KF titration) ([2]; 40° C./75% RH, t = 3 months): 0.4% w/w
- Assay (by HPLC) ([2]; 40° C./75% RH, t = 3 months, anhydrous and solvent free-basis): 99.4% w/w
- Description ([2]; 40° C./75% RH, t = 6 months): Off-white
- Impurity content (by HPLC), no single impurity greater than 0.50% area ([2]; 40° C./75% RH, t = 6 months): Conforms
- Impurity content (by HPLC), total impurities ([2]; 40° C./75% RH, t = 6 months): 0.33% area
- Water content (by KF titration) ([2]; 40° C./75% RH, t = 6 months): 0.1% w/w
- XRPD (conforms to polymorph A) ([2]; 40° C./75% RH, t = 6 months): Conforms
- Assay (by HPLC) ([2]; 40° C./75% RH, t = 6 months, anhydrous and solvent free-basis): 99.0% w/w
- Stability over time ([2]; Tables 3 and 4 (40° C./75% RH and 25° C./60% RH)): stable over time

SMILES: NC(=O)C1CCCc2c1[nH]c1ccc(Cl)cc21 (racemic) [Compound (I), rac-6-Chloro-2,3,4,9-tetrahydro-1H-carbazole-1-carboxamide]
- anti Sirt1 activity (Sirt1): anti Sirt1 activity
